From patent US20110178118A1, “PALONOSETRON FOR THE TREATMENT OF CHEMOTHERAPY INDUCED EMESES” (priority 2002, published 2011)
Marks after values point to notes of the source that are not given here.

How the values were obtained:
[1] = Plasma half-life of palonosetron; format: in vivo; settings: human
[2] = test system: Highly Emetogenic Chemotherapy-Induced Nausea and Vomiting; assay: Phase II dose-ranging trial, single I.V. palonosetron, efficacy; settings: for % CR(Day 5): 5-day complete response; for % CR(24 hr): complete response (no emesis, no rescue)
Description: A randomized, double-blind, multicenter, dose-ranging Phase II trial was performed to identify the dose response relationship among single I.V. doses of palonosetron. Patients receiving highly emetogenic chemotherapy including cyclophosphamide (>1100 mg/m2) and cisplatin (>70 mg/m2), commonly associated with delayed emesis, were assigned to one of five dose groups of a single I.V. administration of palonosetron. Palonosetron was administered alone (without dexamethasone) as a 30 second intravenous injection, 30 minutes prior to chemotherapy administration. The primary endpoint was 24-hour complete responses (no emesis, no rescue) (CR). Secondary endpoints included complete control (no emesis, no rescue, mild nausea) (CC) and 5-day CR.
161 patients (32 women, 129 men) participated.

[3] = palonosetron 0.3-1 mcg/kg single I.V.
[4] = palonosetron 3 mcg/kg single I.V.
[5] = palonosetron 10 mcg/kg single I.V.
[6] = palonosetron 30 mcg/kg single I.V.
[7] = palonosetron 90 mcg/kg single I.V.

Structure (SMILES): Cl.O=C1c2cccc3c2[C@H](CCC3)CN1[C@@H]1CN2CCC1CC2 [Palonosetron, (3aS)-2,3,3a,4,5,6-Hexahydro-2-[(S)-1-Azabicyclo[2.2.2]oct-3-yl]2,3,3a,4,5,6-hexahydro-1-oxo-1Hbenz[de]isoquinoline hydrochloride]
- half-life [1]: ~40 h
- % CR(Day 5) [2, 3]: 17%
- % CR(24 hr) [2, 3]: 24%
- % CR(Day 5) [2, 4]: 17%
- % CR(24 hr) [2, 4]: 46%
- % CR(Day 5) [2, 5]: 32%
- % CR(24 hr) [2, 5]: 40%
- % CR(Day 5) [2, 6]: 33%
- % CR(24 hr) [2, 6]: 50* %
- % CR(Day 5) [2, 7]: 20%
- % CR(24 hr) [2, 7]: 46%
